According to US20240317721A1, “PYRAZOLYL DERIVATIVES AS INHIBITORS OF THE KRAS MUTANT PROTEIN” (NOVARTIS AG, priority 2021, published 2024):

Molecular target: KRasG12C (M1-K169, biotinylated on the N-terminus) (Homo sapiens (Human), UniProt P01116, G12C)
Test: Covalent competition assay: scintillation proximity assay (SPA) quantifying covalent modification of KRASG12C
Type: binding
Conditions: competition with radiolabeled covalent probe (Compound B/Compound A), 2 hours incubation, 10 nM KRasG12C
How it was run: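 Test compounds compete with a radiolabeled covalent probe for modification of N-terminally biotinylated KRasG12C(M1-K169):GDP, final 10 nM protein, 25 nM radio-ligand, 475 nM unlabelled ligand, 2 h with agitation in 20 mM Tris-HCl pH 7.5, 150 mM NaCl, 0.1 mM MgCl2, 0.01% Tween-20.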

IC50 [nM]	SMILES
3400	C=CC(=O)N1CC2(CC(n3nc(N4CC[C@@H](CN5CCN(C6COC6)C[C@@H]5CO)CC4(C)C)c(-c4c(Cl)c(Cl)cc5[nH]ncc45)c3C)C2)C1 (single isomer, unassigned) [Example 290a]
8	C=CC(=O)N1CC2(CC(n3nc(N4CCC(CN5C[C@@H]6C[C@H]5CO6)CC4(C)C)c(-c4c(Cl)c(Cl)cc5[nH]ncc45)c3C)C2)C1 (single isomer, unassigned) [Example 217b]
> 50000	C=CC(=O)N1CC2(CC(n3nc(N4CCN(C5COC5)CC4(C)C)c(-c4c(Cl)c(C)cc5[nH]ncc45)c3C)C2)C1 (single isomer, unassigned) [Example 67a, 1-(6-(4-(5-chloro-6-methyl-1H-indazol-4-yl)-3-(2,2-dimethyl-4-(oxetan-3-yl)piperazin-1-yl)-5-methyl-1H-pyrazol-1-yl)-2-azaspiro[3.3]heptan-2-yl)prop-2-en-1-one]
1200	C=CC(=O)N1CC2(CC(n3nc(N4CCN(CCOC)CC45CCC5)c(-c4c(Cl)c(C)cc5[nH]ncc45)c3C)C2)C1 (single isomer, unassigned) [Example 71a, 1-(6-(4-(5-chloro-6-methyl-1H-indazol-4-yl)-3-(8-(2-methoxyethyl)-5,8-diazaspiro[3.5]nonan-5-yl)-5-methyl-1H-pyrazol-1-yl)-2-azaspiro[3.3]heptan-2-yl)prop-2-en-1-one]
> 5000	C=CC(=O)N1CC2(CC(n3nc(N4CC[C@@H](CN5CC6(CCCN6C6COC6)C5)CC4(C)C)c(-c4c(Cl)c(Cl)cc5[nH]ncc45)c3C)C2)C1 (single isomer, unassigned) [Example 272a]
720	C=CC(=O)N1CC2(CC(n3nc(N4CC[C@@H](CN5CC6(CCN(C7COC7)C6)C5)CC4(C)C)c(-c4c(Cl)c(Cl)cc5[nH]ncc45)c3C)C2)C1 (single isomer, unassigned) [Example 267a]
> 5000	C=CC(=O)N1CC2(CC(n3nc(N4CCN(C[C@@H]5COCCO5)CC45CCC5)c(-c4c(Cl)c(Cl)cc5[nH]ncc45)c3C)C2)C1 (single isomer, unassigned) [Example 171a]
54	C=CC(=O)N1CC2(CC(n3nc(N4CCN(C(=O)C(F)F)CC4(C)C)c(-c4c(Cl)c(C)cc5[nH]ncc45)c3C)C2)C1 (single isomer, unassigned) [Example 128b, 1-(6-(4-(5-chloro-6-methyl-1H-indazol-4-yl)-3-(4-(2,2-difluoroacetyl)-2,2-dimethylpiperazin-1-yl)-5-methyl-1H-pyrazol-1-yl)-2-azaspiro[3.3]heptan-2-yl)prop-2-en-1-one]
> 5000	C=CC(=O)N1CC2(CC(n3nc(N4CCN(C[C@H]5COCCO5)CC45CCC5)c(-c4c(Cl)c(C)cc5[nH]ncc45)c3C)C2)C1 (single isomer, unassigned) [Example 189a]
31	C=CC(=O)N1CC2(CC(n3nc(N4CCN(C5CCOCC5)C[C@@]4(C)C(F)F)c(-c4c(Cl)c(C)cc5[nH]ncc45)c3C)C2)C1 (single isomer, unassigned) [Example 146b]
13	C=CC(=O)N1CC2(CC(n3nc(N4CC[C@@H](CN5CCOCC5)CC4(C)C)c(-c4c(Cl)c(C)cc5[nH]nc(N)c45)c3C)C2)C1 (single isomer, unassigned) [Example 242a]
2700	C=CC(=O)N1CC2(CC(n3nc(N4CCC(O)CC4(C)C)c(-c4c(Cl)c(C)cc5[nH]ncc45)c3C)C2)C1 (single isomer, unassigned) [Example 30b, 1-(6-(4-(5-chloro-6-methyl-1H-indazol-4-yl)-3-(4-hydroxy-2,2-dimethylpiperidin-1-yl)-5-methyl-1H-pyrazol-1-yl)-2-azaspiro[3.3]heptan-2-yl)prop-2-en-1-one]
> 5000	C=CC(=O)N1CC2(CC(n3nc(N4CCN(C5COC5)CC45CCC5)c(-c4c(C)c(Cl)cc5[nH]ncc45)c3C)C2)C1 (single isomer, unassigned) [Example 79a, 1-(6-(4-(6-chloro-5-methyl-1H-indazol-4-yl)-5-methyl-3-(8-(oxetan-3-yl)-5,8-diazaspiro[3.5]nonan-5-yl)-1H-pyrazol-1-yl)-2-azaspiro[3.3]heptan-2-yl)prop-2-en-1-one]
29	C=CC(=O)N1CC2(CC(n3nc(N4CCN(C5CCOC5)CC45CCC5)c(-c4c(Cl)c(C)cc5[nH]ncc45)c3C)C2)C1 (single isomer, unassigned) [Example 132d, 1-(6-(4-(5-chloro-6-methyl-1H-indazol-4-yl)-5-methyl-3-(8-(tetrahydrofuran-3-yl)-5,8-diazaspiro[3.5]nonan-5-yl)-1H-pyrazol-1-yl)-2-azaspiro[3.3]heptan-2-yl)prop-2-en-1-one]
10	C=CC(=O)N1CC2(CC(n3nc(N4CC[C@@H](CN5CC6(O)CC5C6)CC4(C)C)c(-c4c(Cl)c(Cl)cc5[nH]ncc45)c3C)C2)C1 (single isomer, unassigned) [Example 293b]
2780	C/C=C/C(=O)N1CC2(CC(n3nc(N4CCN(C5COC5)CC45CCC5)c(-c4c(Cl)c(C)cc5[nH]ncc45)c3C)C2)C1 (single isomer, unassigned) [Example 138b, (E)-1-(6-(4-(5-chloro-6-methyl-1H-indazol-4-yl)-5-methyl-3-(8-(oxetan-3-yl)-5,8-diazaspiro[3.5]nonan-5-yl)-1H-pyrazol-1-yl)-2-azaspiro[3.3]heptan-2-yl)but-2-en-1-one]
7	C=CC(=O)N1CC2(CC(n3nc(N4CC[C@@H](CN5CCN(C6COC6)C6COCC65)CC4(C)C)c(-c4c(Cl)c(Cl)cc5[nH]ncc45)c3C)C2)C1 (single isomer, unassigned) [Example 280b, 1-(6-(4-(5,6-dichloro-1H-indazol-4-yl)-3-((R)-2,2-dimethyl-4-(((4aS*,7aR*)-4-(oxetan-3-yl)hexahydrofuro[3,4-b]pyrazin-1(2H)-yl)methyl)piperidin-1-yl)-5-methyl-1H-pyrazol-1-yl)-2-azaspiro[3.3]heptan-2-yl)prop-2-en-1-one]
1500	C=CC(=O)N1CC2(CC(n3nc(N4CC[C@@H](CN(C5COC5)C5COC5)CC4(C)C)c(-c4c(Cl)c(Cl)cc5[nH]ncc45)c3C)C2)C1 (single isomer, unassigned) [Example 282a]
6	C=CC(=O)N1CC2(CC(n3nc(N4CCN(C5CCCOC5)C[C@]4(C)CC)c(-c4c(Cl)c(C)cc5[nH]ncc45)c3C)C2)C1 (single isomer, unassigned) [Example 157c]
27	C=CC(=O)N1CC2(CC(n3nc(N4CCN(CCOC(F)F)CC45CCC5)c(-c4c(Cl)c(C)cc5[nH]ncc45)c3C)C2)C1 (single isomer, unassigned) [Example 183b, 1-(6-(4-(5-chloro-6-methyl-1H-indazol-4-yl)-3-(8-(2-(difluoromethoxy)ethyl)-5,8-diazaspiro[3.5]nonan-5-yl)-5-methyl-1H-pyrazol-1-yl)-2-azaspiro[3.3]heptan-2-yl)prop-2-en-1-one]
1600	C=CC(=O)N1CC2(CC(n3nc(N4CCN(CC(C)(C)O)CC45CCC5)c(-c4c(Cl)c(C)cc5[nH]nc(N)c45)c3C)C2)C1 (single isomer, unassigned) [Example 117b, 1-(6-(4-(3-amino-5-chloro-6-methyl-1H-indazol-4-yl)-3-(8-(2-hydroxy-2-methylpropyl)-5,8-diazaspiro[3.5]nonan-5-yl)-5-methyl-1H-pyrazol-1-yl)-2-azaspiro[3.3]heptan-2-yl)prop-2-en-1-one]
7	C=CC(=O)N1CC2(CC(n3nc(N4CCC5(CN(C6COC6)C5)CC4(C)C)c(-c4c(Cl)c(Cl)cc5[nH]ncc45)c3C)C2)C1 (single isomer, unassigned) [Example 92b, 1-(6-(4-(5,6-dichloro-1H-indazol-4-yl)-3-(6,6-dimethyl-2-(oxetan-3-yl)-2,7-diazaspiro[3.5]nonan-7-yl)-5-methyl-1H-pyrazol-1-yl)-2-azaspiro[3.3]heptan-2-yl)prop-2-en-1-one]
> 5000	CC[C@@]1(C)CN(C[C@@H]2COCCO2)CCN1c1nn(C2CC3(C2)CN(C(=O)/C=C/COC)C3)c(C)c1-c1c(Cl)c(C)cc2[nH]ncc12 (single isomer, unassigned) [Example 120a]
> 5000	C=CC(=O)N1CC2(CC(n3nc(N4CC[C@@H](CN5CCCC6CN(C)C(=O)C65)CC4(C)C)c(-c4c(Cl)c(Cl)cc5[nH]ncc45)c3C)C2)C1 (single isomer, unassigned) [Example 262a, (4aR*,7aR*)-1-(((R)-1-(1-(2-acryloyl-2-azaspiro[3.3]heptan-6-yl)-4-(5,6-dichloro-1H-indazol-4-yl)-5-methyl-1H-pyrazol-3-yl)-2,2-dimethylpiperidin-4-yl)methyl)-6-methyloctahydro-7H-pyrrolo[3,4-b]pyridin-7-one]
1500	C=CC(=O)N1CC2(CC(n3nc(N4CCC(N5CCOCC5)CC4(C)C)c(-c4c(Cl)c(C)cc5[nH]ncc45)c3C)C2)C1 (single isomer, unassigned) [Example 35b, 1-(6-(4-(5-chloro-6-methyl-1H-indazol-4-yl)-3-(2,2-dimethyl-4-morpholinopiperidin-1-yl)-5-methyl-1H-pyrazol-1-yl)-2-azaspiro[3.3]heptan-2-yl)prop-2-en-1-one]
9	C=CC(=O)N1CC2(CC(n3nc(N4CCN(C5CCOCC5)C[C@]4(C)COC)c(-c4c(Cl)c(C)cc5[nH]ncc45)c3C)C2)C1 (single isomer, unassigned) [Example 149b]
12	C=CC(=O)N1CC2(CC(n3nc(N4CCC5(CN(C6COC6)C5)CC45CCC5)c(-c4c(Cl)c(C)cc5[nH]ncc45)c3C)C2)C1 (single isomer, unassigned) [Example 93b, 1-(6-(4-(5-chloro-6-methyl-1H-indazol-4-yl)-5-methyl-3-(2-(oxetan-3-yl)-2,10-diazadispiro[3.1.3^6.3^4]dodecan-10-yl)-1H-pyrazol-1-yl)-2-azaspiro[3.3]heptan-2-yl)prop-2-en-1-one]

SMILES	IC50 [nM]
C=CC(=O)N1CC2(CC(n3nc(N4CC[C@@H](CN5C6CCC5CN(C(C)=O)C6)CC4(C)C)c(-c4c(Cl)c(Cl)cc5[nH]ncc45)c3C)C2)C1 (single isomer, unassigned) [Example 318a]	4000
